Experimental data: PubChem BioAssay AID1996
In brackets after ≈: the same amount, converted by molar mass. Non-standard residues stand in square brackets, D forms with d. Residues, ends and D or L forms follow the SMILES beside them. *: point of attachment. Tic = O=C(O)[C@@H]1Cc2ccccc2CN1; NHPr = CCCN*

Settings: buffer; pH 7.4; 200.0 µM
Compound COCC1CCN(C(=O)c2oc3c(F)cccc3c2C)C1 (stereo not given) has a solubility kinetic of 37.3 µg/mL (≈ 128 µM).
Work on C=CCNc1nc2ccccc2c(=O)[nH]1 yielded a solubility kinetic of 29.1 µg/mL (≈ 145 µM).
CSc1ccc(CN2CCN(C(=O)Cc3ccccc3)CC2)cc1 showed a solubility kinetic of 28.9 µg/mL (≈ 84.9 µM).
Cc1nn(C)c(Sc2ccccn2)c1[N+](=O)[O-] showed a solubility kinetic of over 37.5 µg/mL.
Cc1noc(C)c1COC(=O)COc1ccc(C#N)cc1 gave a solubility kinetic of over 42.9 µg/mL.
In the case of O=C(CSc1ncnc2ccccc12)NCCc1ccccc1, the solubility kinetic is reported as over 48.5 µg/mL.
COc1ccc(-c2nc(N)ncc2-c2ccc(Cl)cc2)c(O)c1 showed a solubility kinetic of under 0.2 µg/mL.
In the case of Cc1cc(C#N)c(SCC(N)=O)nc1-c1ccc(F)cc1, the solubility kinetic is reported as 5.6 µg/mL (≈ 18.6 µM).
With CSc1cccc(NC(=O)C2(S(=O)(=O)c3ccc(C)cc3)CC2)c1 the solubility kinetic was 19.9 µg/mL (≈ 55.1 µM).
With COc1ccc(NC(=O)CN(C)CC(=O)N2CCCCCC2)cc1 the solubility kinetic was 49 µg/mL (≈ 147 µM).
For Cc1ccc(S(=O)(=O)CCC(=O)NCCc2ccccc2)cc1, the solubility kinetic was over 49.7 µg/mL.
For Cn1cccc1C(=O)NCC1CCCCC1, the solubility kinetic was 28 µg/mL (≈ 127 µM).
Compound Cc1nc(C)c(C(=O)NCCC(c2ccccc2)c2ccccc2)o1 has a solubility kinetic of 43.8 µg/mL (≈ 131 µM).
Work on CC(=O)Oc1ccc(C2(C)CC(C)(C)NC(=S)N2C)c(OC(C)=O)c1 (stereo not given) yielded a solubility kinetic of over 54.7 µg/mL.
Compound O=C(O)CCCC(=O)Nc1nncs1 has a solubility kinetic of over 32.3 µg/mL.
COc1ccc(C(=O)C2CCCN(C(=O)c3cnsn3)C2)c(C)c1 (stereo not given) showed a solubility kinetic of 40 µg/mL (≈ 116 µM).
O=C(c1cnc2nc3ccccc3n2c1)c1cc(F)ccc1O showed a solubility kinetic of 9.2 µg/mL (≈ 29.9 µM).
Work on CNC(=O)C1=C(C)Nc2nc3ccccc3n2C1c1ccc(F)cc1 (stereo not given) yielded a solubility kinetic of 48.9 µg/mL (≈ 145 µM).
Compound Cc1ccc(S(=O)(=O)N2CCN(C(=O)COC(=O)c3cncc(Br)c3)CC2)c(C)c1 has a solubility kinetic of 5.3 µg/mL (≈ 10.7 µM).
In the case of CCN(CC)c1ccc(C=Nc2cccnc2Cl)c(O)c1, the solubility kinetic is reported as 33.3 µg/mL (≈ 110 µM).
In the case of O=C(O)c1sccc1S(=O)(=O)N1CCOCC1, the solubility kinetic is reported as over 41.6 µg/mL.
With Cc1ccc(S(=O)(=O)Nc2ccccc2N2CCOCC2)cc1 the solubility kinetic was 0.8 µg/mL (≈ 2.41 µM).
For CCOc1ccc(N2C(=O)/C(=C/c3ccc(C)o3)C(=O)NC2=S)cc1, the solubility kinetic was over 53.5 µg/mL.
For CN(Cc1ccco1)S(=O)(=O)c1csc(C(N)=O)c1, the solubility kinetic was 44.7 µg/mL (≈ 149 µM).
Work on O=C(NCc1cccnc1)Nc1cccc(C(F)(F)F)c1 yielded a solubility kinetic of over 44.3 µg/mL.
For COc1ccc(CCNC(=O)c2cc(=O)n(C)c(=O)n2C)cc1OC, the solubility kinetic was 48.7 µg/mL (≈ 140 µM).
For Cc1nc(N)nc(Cl)c1Cc1ccc(Cl)cc1, the solubility kinetic was 3.6 µg/mL (≈ 13.4 µM).
Work on CC(=O)Nc1ccc(Nc2ccccc2)cc1 yielded a solubility kinetic of over 33.9 µg/mL.
In the case of CCCN1C(=O)c2ccccc2NC1c1ccc(Cl)c(Cl)c1 (stereo not given), the solubility kinetic is reported as 11.9 µg/mL (≈ 35.5 µM).
COC(=O)c1sccc1NC(=O)CC1NCCNC1=O (stereo not given) showed a solubility kinetic of 42.1 µg/mL (≈ 142 µM).
Work on N#Cc1c(-c2ccc(Cl)cc2)cc(-c2cccs2)nc1SCC(=O)O yielded a solubility kinetic of 13.2 µg/mL (≈ 34.1 µM).
For O=C(Nc1ccc(S(=O)(=O)N2CCCC2)cc1)c1ccc([N+](=O)[O-])o1, the solubility kinetic was 6.8 µg/mL (≈ 18.6 µM).
For CN1C(=O)C2(OCC(C)([N+](=O)[O-])CO2)c2ccccc21 (stereo not given), the solubility kinetic was 21.7 µg/mL (≈ 78 µM).
Compound CC(C)NC(=O)NNC(=O)c1nn(-c2ccc(F)cc2)ccc1=O has a solubility kinetic of over 50 µg/mL.
CC(=O)N(C)c1ccc(NS(=O)(=O)c2cccc3nsnc23)cc1 showed a solubility kinetic of over 54.4 µg/mL.
In the case of Cc1cc(=S)c2cccc(C)c2[nH]1, the solubility kinetic is reported as 26.5 µg/mL (≈ 140 µM).
Work on Cc1cc(NC(=O)COC(=O)c2c(C)c(C)c(C)c(C)c2C)no1 yielded a solubility kinetic of 2.3 µg/mL (≈ 6.96 µM).
With CCOC(=O)C1CCCN(CCSc2ccc(C)cc2)C1.Cl (stereo not given) the solubility kinetic was 41.3 µg/mL.
In the case of COc1ccc(NC(=S)/N=C(\N)Nc2nc(C)c3ccccc3n2)cc1, the solubility kinetic is reported as 0.7 µg/mL (≈ 1.91 µM).
With CN(C(=O)Nc1cnccc1C(F)(F)F)C1CCCCC1 the solubility kinetic was 41.1 µg/mL (≈ 136 µM).
With COc1ccc(NC(=O)c2cccnc2)cc1 the solubility kinetic was over 34.2 µg/mL.
For Cc1cccc(NC(=O)Nc2ccc([N+](=O)[O-])cc2)n1, the solubility kinetic was under 0.1 µg/mL.
Work on Cc1cccc(OCC(=O)OCC(=O)Nc2sccc2C(N)=O)c1 yielded a solubility kinetic of 44.2 µg/mL (≈ 127 µM).
With COc1ccc(CCN)cc1OC the solubility kinetic was 24.8 µg/mL (≈ 137 µM).
In the case of CC1(C)C(C=C(Cl)Cl)C1C(=O)NC(O)C(=O)c1ccccc1 (stereo not given), the solubility kinetic is reported as 10.8 µg/mL (≈ 31.6 µM).
Compound COc1ccc(C)cc1NC(=O)NC1CCCc2ccccc21 (stereo not given) has a solubility kinetic of under 0.3 µg/mL.
Compound CCCNC(=O)[C@@H]1CCCN1C(=O)[C@@H]1Cc2ccccc2CN1.Cl (H-[Tic]-Pro-NHPr) has a solubility kinetic of over 52.8 µg/mL.
Work on CCOc1cc(CNCc2ccccn2)cc(Cl)c1OCC.Cl yielded a solubility kinetic of 35.5 µg/mL.
COc1ccc(NC(=O)COC(=O)C2CCC2)cc1Cl gave a solubility kinetic of 42.8 µg/mL (≈ 144 µM).
O=C(CCNC(=O)c1ccc([N+](=O)[O-])cc1)NCCc1ccccc1 gave a solubility kinetic of 13.8 µg/mL (≈ 40.4 µM).
Compound COc1ccc(CCNC(=O)CCC(=O)NC2CCCC(C)C2C)cc1OC (stereo not given) has a solubility kinetic of 39.3 µg/mL (≈ 101 µM).
Cc1nc(CC(=O)Nc2nccs2)cs1 showed a solubility kinetic of over 35.9 µg/mL.
O=C1NC(c2ccc(Cl)cc2Cl)Oc2ccccc21 (stereo not given) showed a solubility kinetic of 0.9 µg/mL (≈ 3.06 µM).
In the case of Cn1c(CN2CCCCC2)nc2cc([N+](=O)[O-])ccc21, the solubility kinetic is reported as over 41.1 µg/mL.
CCn1c(CCl)nc2cc(S(=O)(=O)N3CCOCC3)ccc21 showed a solubility kinetic of 12.9 µg/mL (≈ 37.5 µM).
Compound Cc1cccc(NC(=O)COC(=O)CC2CCCC2)c1C has a solubility kinetic of over 43.4 µg/mL.
O=C(CCc1ccccc1)N1CCCC(Nc2ccc(F)cc2)C1 (stereo not given) showed a solubility kinetic of 41.4 µg/mL (≈ 127 µM).
Compound CN1C(=O)C2C3c4ccccc4C(c4ccccc43)[C@@H]2C1=O (stereo not given in full) has a solubility kinetic of 2 µg/mL (≈ 6.91 µM).
Work on COc1ccc([C@@H]2OC2(C(N)=O)C(N)=O)cc1 yielded a solubility kinetic of 32.2 µg/mL (≈ 136 µM).
Compound O=[N+]([O-])c1ccccc1S(=O)(=O)Nc1ccc(S(=O)(=O)N2CCCC2)cc1 has a solubility kinetic of over 61.7 µg/mL.
